Measured values reported in article PMC7935272 (PLoS Pathogens, 2021).
Where “and” joins values, the source holds several entries; their conditions need not be identical. Identical values can stand only once. Like-named read-outs stand apart in the source and are kept apart here.

What was measured:
Vero-hSLAM cells [1] = assay: in vitro; format: cell-based, African green monkey
Protocol: (§1) To determine cytotoxic concentrations Vero-hSLAM cells were plated in 96 well plates (1.1 × 10^4 per well) and incubated with three-fold serial dilutions of compound. After incubation of uninfected cells for 72 hours, PrestoBlue substrate (Invitrogen) was added to quantify cell metabolic activity as described. Signal was measured using a BioTek H1 synergy multimode microplate reader. Where applicable, cytotoxic concentrations (CC50) were calculated based on four-parameter variable slope regression modeling.

in vitro = format: cell-based, African green monkey; settings: African green monkey; Vero-hSLAM, 72 hours
Protocol: as §1

MeV [2] = assay: Antiviral dose-response assay, MeV-NanoPEST reporter virus in Vero-hSLAM cells
Protocol: Compound was added in three-fold dilutions to 96-well plates seeded with Vero-hSLAM cells (1.1 × 10^4 per well), followed by infection (MOI = 0.2 TCID50 units per cell) with a recombinant MeV-NanoPEST reporter virus harboring Nano luciferase [36]. After 30-hour incubation, Nano luciferase signals were quantified using a BioTek Synergy H1 multimode plate reader. Raw data were normalized according to norm. value [%] = (RLUsample—RLUmin) / (RLUmax—RLUmin)*100, with RLUmax representing vehicle (DMSO) volume equivalent-treated infected wells and RLUmin representing infected wells exposed to 1 mg/ml cycloheximide. Four-parameter variable slope regression modeling was used to determine EC50 and EC90 concentrations.

WT MeV L-P complexes = WT MeV L-P complexes (Measles virus, UniProt Q9WMB3); assay: In vitro MeV RdRP assay, de novo initiation, 16-nt template, L WT; format: biochemical; settings: de novo RNA synthesis, S9 Fig
Chain of WT MeV L-P complexes (Q9WMB3 whole entry): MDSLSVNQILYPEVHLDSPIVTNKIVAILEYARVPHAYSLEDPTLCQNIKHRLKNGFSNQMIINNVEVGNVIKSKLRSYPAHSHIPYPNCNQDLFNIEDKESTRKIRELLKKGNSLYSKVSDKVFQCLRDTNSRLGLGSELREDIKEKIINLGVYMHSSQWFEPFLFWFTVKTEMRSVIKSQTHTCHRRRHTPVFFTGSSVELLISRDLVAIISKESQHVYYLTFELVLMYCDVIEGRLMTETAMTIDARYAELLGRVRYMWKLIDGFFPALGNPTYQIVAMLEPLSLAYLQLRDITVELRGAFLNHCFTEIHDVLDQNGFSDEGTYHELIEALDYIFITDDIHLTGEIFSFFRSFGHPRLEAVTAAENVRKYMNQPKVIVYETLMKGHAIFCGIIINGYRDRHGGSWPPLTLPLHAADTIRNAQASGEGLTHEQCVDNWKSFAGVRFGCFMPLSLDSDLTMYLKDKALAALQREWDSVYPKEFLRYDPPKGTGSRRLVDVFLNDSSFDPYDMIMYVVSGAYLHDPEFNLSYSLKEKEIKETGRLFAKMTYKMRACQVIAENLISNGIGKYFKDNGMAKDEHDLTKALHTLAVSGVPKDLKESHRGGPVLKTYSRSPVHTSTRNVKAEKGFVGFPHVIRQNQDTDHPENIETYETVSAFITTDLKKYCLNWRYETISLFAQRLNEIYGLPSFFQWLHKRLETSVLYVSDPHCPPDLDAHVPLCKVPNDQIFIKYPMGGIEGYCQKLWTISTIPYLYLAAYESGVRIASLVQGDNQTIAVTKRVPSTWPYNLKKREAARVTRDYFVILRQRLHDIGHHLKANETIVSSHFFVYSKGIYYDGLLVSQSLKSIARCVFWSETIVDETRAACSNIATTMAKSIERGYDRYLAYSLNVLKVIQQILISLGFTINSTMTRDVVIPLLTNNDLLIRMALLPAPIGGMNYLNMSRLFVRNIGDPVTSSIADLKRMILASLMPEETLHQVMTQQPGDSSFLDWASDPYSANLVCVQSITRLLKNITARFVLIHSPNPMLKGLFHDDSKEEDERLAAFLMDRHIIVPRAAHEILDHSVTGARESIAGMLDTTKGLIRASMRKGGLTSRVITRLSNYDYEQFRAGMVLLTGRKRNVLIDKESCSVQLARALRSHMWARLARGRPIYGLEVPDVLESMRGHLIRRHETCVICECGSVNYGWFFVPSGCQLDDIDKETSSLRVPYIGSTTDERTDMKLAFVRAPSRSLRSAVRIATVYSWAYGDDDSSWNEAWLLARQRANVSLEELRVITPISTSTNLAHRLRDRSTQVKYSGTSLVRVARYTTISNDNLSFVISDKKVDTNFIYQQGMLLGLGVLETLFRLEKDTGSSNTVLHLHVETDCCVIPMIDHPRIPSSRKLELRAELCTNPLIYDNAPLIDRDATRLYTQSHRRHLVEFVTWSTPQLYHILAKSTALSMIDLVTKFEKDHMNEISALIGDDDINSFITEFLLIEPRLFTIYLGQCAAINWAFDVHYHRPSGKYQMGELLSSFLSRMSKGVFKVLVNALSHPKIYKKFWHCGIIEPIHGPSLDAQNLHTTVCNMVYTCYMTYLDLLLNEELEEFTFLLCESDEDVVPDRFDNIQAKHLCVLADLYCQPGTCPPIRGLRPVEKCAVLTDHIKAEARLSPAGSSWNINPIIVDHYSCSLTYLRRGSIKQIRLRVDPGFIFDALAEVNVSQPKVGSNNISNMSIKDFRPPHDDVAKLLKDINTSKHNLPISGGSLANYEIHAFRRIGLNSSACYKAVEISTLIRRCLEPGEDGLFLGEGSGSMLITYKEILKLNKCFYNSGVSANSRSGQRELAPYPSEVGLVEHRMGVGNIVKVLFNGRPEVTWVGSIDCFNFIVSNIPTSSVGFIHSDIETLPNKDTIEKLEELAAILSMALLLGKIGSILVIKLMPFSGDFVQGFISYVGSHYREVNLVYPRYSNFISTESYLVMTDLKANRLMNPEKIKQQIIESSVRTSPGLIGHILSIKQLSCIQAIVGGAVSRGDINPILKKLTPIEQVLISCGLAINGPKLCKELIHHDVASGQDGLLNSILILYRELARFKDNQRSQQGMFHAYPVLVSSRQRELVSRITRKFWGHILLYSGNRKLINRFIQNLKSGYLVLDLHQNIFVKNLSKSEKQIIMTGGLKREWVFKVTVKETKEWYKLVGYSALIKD
Chain of WT MeV L-P complexes (Q9WMB4 whole entry partner): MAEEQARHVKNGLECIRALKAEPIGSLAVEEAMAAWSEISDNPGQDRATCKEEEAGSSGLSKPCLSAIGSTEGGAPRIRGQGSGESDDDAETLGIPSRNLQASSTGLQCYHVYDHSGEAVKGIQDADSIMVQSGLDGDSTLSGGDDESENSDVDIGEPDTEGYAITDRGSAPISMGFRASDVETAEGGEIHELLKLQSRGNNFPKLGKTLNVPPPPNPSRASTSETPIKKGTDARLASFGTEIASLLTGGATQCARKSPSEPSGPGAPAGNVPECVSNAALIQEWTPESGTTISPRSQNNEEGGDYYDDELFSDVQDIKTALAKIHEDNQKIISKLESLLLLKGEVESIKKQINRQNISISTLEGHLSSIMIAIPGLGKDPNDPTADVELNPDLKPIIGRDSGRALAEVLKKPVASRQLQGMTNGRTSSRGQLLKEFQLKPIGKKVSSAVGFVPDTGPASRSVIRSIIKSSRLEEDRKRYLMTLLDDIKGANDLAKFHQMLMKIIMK

Vero-hSLAM cells [3] = test system: Vero-hSLAM cells
MeV [4] = assay: Synergy analysis ERDRP-0519 and GHP-88309, antiviral; format: cell-based; settings: ERDRP519 0.00 µM

Cn1nc(C(F)(F)F)cc1C(=O)Nc1ccc(S(=O)(=O)N2CCCC[C@@H]2CCOCc2ccc(N=[N+]=[N-])cc2)cc1 [ERDRP-0519az, S(=O)(=O)(N1[C@@H](CCOCc2ccc(N=[N+]=[N-])cc2)CCCC1)c1ccc(NC(=O)c2n(C)nc(C(F)(F)F)c2)cc1]
Cytotoxicity, normalized metabolic activity (Figure 5B) (Vero-hSLAM cells [1]; cpd concentration 0.045725): 97.5938 and 98.2663 and 103.31 | Cytotoxicity, normalized metabolic activity (Figure 5B) (Vero-hSLAM cells [1]; cpd concentration 0.137174): 101.061 and 94.8618 and 104.907 | Cytotoxicity, normalized metabolic activity (Figure 5B) (Vero-hSLAM cells [1]; cpd concentration 0.411523): 95.7655 and 116.003 and 116.276 | Cytotoxicity, normalized metabolic activity (Figure 5B) (Vero-hSLAM cells [1]; cpd concentration 1.23457): 92.9074 and 113.376 and 114.469 | Cytotoxicity, normalized metabolic activity (Figure 5B) (Vero-hSLAM cells [1]; cpd concentration 3.7037): 94.1683 and 104.487 and 118.02 | Cytotoxicity, normalized metabolic activity (Figure 5B) (Vero-hSLAM cells [1]; cpd concentration 11.1111): 88.7254 and 96.8582 and 105.432 | Cytotoxicity, normalized metabolic activity (Figure 5B) (Vero-hSLAM cells [1]; cpd concentration 33.3333): 97.5097 and 90.4066 and 94.9249 | Cytotoxicity, normalized metabolic activity (Figure 5B) (Vero-hSLAM cells [1]; cpd concentration 100): 99.0228 and 98.1192 and 101.776 | cytotoxicity (Vero-hSLAM cells [1]; highest concentration tested (100 μM)): No cytotoxicity was detectable | CC50 (in vitro): > 100 µM | EC50 (MeV [2]): 12.1 µM | MeV inhibition, normalized reporter signal (Figure 5B) (MeV [2]; cpd concentration 0.045725): 95.5633 and 136.086 and 77.2785 | MeV inhibition, normalized reporter signal (Figure 5B) (MeV [2]; cpd concentration 0.137174): 112.785 and 92.1722 and 86.1147 | MeV inhibition, normalized reporter signal (Figure 5B) (MeV [2]; cpd concentration 0.411523): 116.552 and 130.546 and 132.822 | MeV inhibition, normalized reporter signal (Figure 5B) (MeV [2]; cpd concentration 1.23457): 119.15 and 109.045 and 127.688 | MeV inhibition, normalized reporter signal (Figure 5B) (MeV [2]; cpd concentration 11.1111): 44.8748 and 67.0329 and 58.1588 | MeV inhibition, normalized reporter signal (Figure 5B) (MeV [2]; cpd concentration 33.3333): 8.061 and 7.668 and 10.5185 | MeV inhibition, normalized reporter signal (Figure 5B) (MeV [2]; cpd concentration 100): 2.512 and 3.634 and 2.904 | bioactivity in the in vitro RdRP assay (WT MeV L-P complexes): diminished potency

NC(=O)c1c(F)cccc1-c1cccc2cnccc12 [GHP88309]
S4 B cytotoxicity matrix, normalized value (Vero-hSLAM cells [3]): 100.00 | S4 B cytotoxicity matrix, normalized value (Vero-hSLAM cells [3]; ERDRP519 0.00 µM, GHP88309 0.27 µM): 99.90 | S4 B cytotoxicity matrix, normalized value (Vero-hSLAM cells [3]; ERDRP519 0.00 µM, GHP88309 0.82 µM): 99.44 and 91.52 | S4 B cytotoxicity matrix, normalized value (Vero-hSLAM cells [3]; ERDRP519 0.00 µM, GHP88309 7.41 µM): 97.69 | S4 B cytotoxicity matrix, normalized value (Vero-hSLAM cells [3]; ERDRP519 0.00 µM, GHP88309 66.67 µM): 98.85 and 98.57 | S4 B cytotoxicity matrix, normalized value (Vero-hSLAM cells [3]; ERDRP519 0.00 µM, GHP88309 200.00 µM): 92.50 and 87.59 and 94.52 | S4 A antiviral matrix, normalized value (MeV [4]; GHP88309 0.03 µM): 100.00 | S4 A antiviral matrix, normalized value (MeV [4]; GHP88309 0.08 µM): 78.32 and 88.03 and 100.19 and 97.70 | S4 A antiviral matrix, normalized value (MeV [4]; GHP88309 0.74 µM): 50.86 and 41.77 and 80.59 and 41.41 | S4 A antiviral matrix, normalized value (MeV [4]; GHP88309 2.22 µM): 14.61 and 17.48 and 22.13 and 11.92
